Assay [1] relates to IL-6. Briefly: P. acnes-induced IL-6 release in THP-1 cells (ELISA). The assay is classed as cell-based. To be noted: for Expression of Cytokines IL-6 (pg/ml) Mean: THP-1 cells, Table 71; for Effect on P. acnes-induced IL-6 levels (in words): Example 61, besifloxacin 10, 30 μg/ml, adapalene 0.04, 0.4 μg/ml. Here is the method: (§1) Method: Preparation of Stimulant for Inflammation: P. acnes culture suspension was prepared in PBS and the cell number in the suspension was adjusted to approximately 5×10^8 CFU/ml by measuring the cell density using a Densimat. The bacterial suspension was then heat killed at 80° C. for 30 min and stored at −80° C. until further use.
(§2) Cells were seeded in a 96-well format (2×10^5 THP-1 cells per well) in media containing 10% FBS. The cells were stimulated to induce inflammatory cytokines using 3 McFarland equivalent heat-killed P. acnes. Cells in control wells were treated with PBS. One hour after induction with P. acnes, test agents were added to the induced cells at appropriate concentrations to be tested (compound 91 at 25 μg/ml). The plates were incubated at 37° C. for 24 hours. After 24 h, the plates were centrifuged to pellet the cells and the supernatants were collected. The cell culture supernatants thus obtained were analyzed for levels of cytokines (IL-1α, IL-1β, IL-6 and IL-8) by ELISA using R&D Systems kits for individual cytokines following the manufacturer's instructions.
(§3) Preparation of stimulant for inflammation: P. acnes culture suspension was prepared in PBS and the cell number in the suspension was adjusted to approximately 5×10^8 CFU/ml by measuring the cell density using a Densimat. The bacterial suspension was then heat killed at 80° C. for 30 min and stored at −80° C. until further use.
(§4) Cells were seeded in a 96-well format (2×10^5 THP-1 cells per well) in media containing 10% FBS. The cells were stimulated to induce inflammatory cytokines using 3 McFarland equivalent heat-killed P. acnes. Cells in control wells were treated with PBS. One hour after induction with P. acnes, test agents were added to the induced cells at appropriate concentrations (Besifloxacin at 10 and 30 μg/ml; Adapalene at 0.04 and 0.4 μg/ml). The plates were incubated at 37° C. for 24 hours. After 24 h, the plates were centrifuged to pellet the cells and the supernatants were collected. The cell culture supernatants thus obtained were analyzed for cytokine levels (IL-6 and IL-8) by ELISA using R&D Systems kits for individual cytokines following the manufacturer's instructions.

Assay [2] concerns IL-8. Briefly: P. acnes-induced IL-8 release in THP-1 cells (ELISA). It is filed as cell-based. The settings on record: THP-1 cells, Table 71. The procedure:
as §1, §2, §3, §4
In general terms: ELISA stands for enzyme-linked immunosorbent assay.

Assay [3] concerns P. acnes clinical isolates. Briefly: MIC of P. acnes isolated from acne patients (clinical isolates).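 Further: anaerobic 96-well plate assay at 37 °C over 72 h, with Alamar blue dye as read-out.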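 On MIC: MIC in µg/mL.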
Procedure: P. acnes were cultured in Brain Heart Infusion Agar (BHIA) at 37° C. for 48 hours under anaerobic condition. […] For bacterial inoculum, P. acnes culture turbidity was adjusted to 0.5 McFarland standard (approximately 1.5×10^8) and further diluted (100 times with sterile BHI broth). Diluted P. acnes suspension (100 μl) was added to each well except sterility control wells (column 12 of 96 well plate). Inoculated plates were incubated at 37° C. for 72 hours under anaerobic condition. After incubation, MIC was determined by adding Alamar blue dye.
Assay [4] has as its system P. acnes MTCC 1951. Briefly: MIC by micro broth dilution (Alamar blue), clindamycin-susceptible P. acnes. It is filed as cell-based, Propionibacterium acnes. The settings on record: Cutibacterium acnes, MTCC1951; Table 7; against P. acnes; read-out: MIC. The procedure:
The plates were incubated at 37° C. for 48 h under anaerobic condition for P. acnes and 37° C. for 24 h for S. aureus The plates were read under Bio-Rad plate reader at 595 nm for optical density to generate the dose-response curves. The MIC of the test compound was recorded by addition of Alamar blue dye.
P. acnes (MTCC 3297, MTCC 1951& CCARM 9010) are cultured in Brain Heart Infusion (BHI) Broth at 37° C. for 48-72 h under anaerobic condition. The test compounds/formulations are initially diluted with suitable solvent and further diluted with BHI broth to get the required concentrations. Samples (100 μl) of different concentrations (prepared by serial dilution) are added to 96-well plate. To the wells, 100 μl of P. acnes BHI broth culture is added [culture turbidity adjusted against 0.5 McFarland standard (approx 1.5×10^8), and further diluted 100-fold with sterile BHI broth]. In addition Growth Control and Sterility Control are created using 100 μl each of P. acnes BHI broth culture and plain BHI broth, respectively.
Plates are incubated at 37° C. for 48-72 hrs under anaerobic condition. The plate is read under Bio-Rad plate reader @ 595 nm for optical density to generate the dose-response curves. The MIC of the test compound is recorded by addition of Alamar blue dye.
BHI broth and BHI agar media were prepared as per the manufacturer's instruction and autoclaved at 121° C. for 15 minutes. […] For MIC determination testing, gels are dissolved in the solvent and further diluted with BHI broth. Then, 96 wells plate are filled with 100 μl of BHI broth containing drug with different concentration to get the final concentrations of 0.06, 0.13, 0.25, 0.5, 1 and 2 μg/ml in different lanes (lane 1 to lane 6). Remaining lanes of the 96 well plate are used as growth control and sterility control. Finally, P. acnes culture suspension (approx 1.5×10^6) is added in all the wells except sterility control wells and plate is incubated at 37° C. for 48-72 h under anaerobic condition. At the end of 72 h, Alamar blue solution (20 μl) is added into the wells and incubated at 37° C. for 2 h. Plate is visualized for bacterial inhibitions and MIC values of the tested samples are determined. […]
On the technique in general: Broth dilution looks for growth in wells or tubes with falling amounts of substance.

In assay [5] the test system is P. acnes MTCC 1951. It is filed as cell-based, Propionibacterium acnes. The settings on record: for MPC: P. acnes, 10^10 cells inoculum; for MPC/MIC: ratio against P. acnes. The procedure:
3 to 4 Petri plates containing 48 h P. acnes culture was suspended in sterile Phosphate buffer saline, PBS (pH 7.2) and turbidity was adjusted to optical density of 1 at 600 nm (10^9 cells/ml). 50 ml of this culture suspension was centrifuged at 4000 rpm for 40 min. The supernatant was discarded and pellet resuspended in 250 μl of sterile PBS. 50 μl of these cell suspensions (10^10 cells) was spread over the plates containing various concentrations of antibiotics (around MIC range). Plates were incubated at 37° C. for 48 h and the lowest concentration of the drug that allowed no growth was taken as its MPC.

[6] abbreviates: Cells + P. acnes + Adapalene 0.04 μg/ml.
Where [7] appears, read: Cells + P. acnes + Adapalene 0.4 μg/ml.

One may read the MIC as the lowest concentration that inhibits growth of the organism.

Converted amounts (≈) assume the structure as drawn. Like-named read-outs stand apart in the source and are kept apart here.

`COc1ccc(-c2ccc3cc(C(=O)O)ccc3c2)cc1C12CC3CC(CC(C3)C1)C2` [Adapalene, adapalene]: the “Expression of Cytokines IL-6 (pg/ml) Mean” value in assay [1] (setting [6]) was 308.82 pg/mL; in assay [1] (setting [7]), 162.76 pg/mL. Also, the “Effect on P. acnes-induced IL-6 levels (in words)” value in assay [1] is “impart individual anti-inflammatory effects”. Further, the “Expression of Cytokines IL-8 (pg/ml) Mean” value in assay [2] (setting [6]) stood at 2536.76 pg/mL; in assay [2] (setting [7]) it was 2579.87 pg/mL.
Turning to `N[C@@H]1CCCCN(c2c(F)cc3c(=O)c(C(=O)O)cn(C4CC4)c3c2Cl)C1` [Besifloxacin], in assay [1], the “Effect on P. acnes-induced IL-6 levels (in words)” value is “concentration-dependent inhibitory effect”. For the same molecule, the “Susceptibility of P. acnes isolated from volunteers V3 and V21 (in words)” value in assay [3] is “susceptible”. Moreover, the “Susceptibility of clindamycin-nonresponder clinical isolates (in words)” value in assay [3] is “susceptible”. In addition, the “Susceptibility of clinical isolates susceptible to clindamycin and erythromycin (in words)” value in assay [3] is “susceptible”. The MIC was 0.25 µg/mL in assay [3] (Cutibacterium acnes); 0.5 µg/mL in assay [3] (Cutibacterium acnes, P. acnes strain V5-2, clinical isolate susceptible to clindamycin and erythromycin); 0.5 µg/mL in assay [3] (Cutibacterium acnes, P. acnes strain V5-5, clinical isolate susceptible to clindamycin and erythromycin); 0.5 µg/mL in assay [3] (Cutibacterium acnes, P. acnes strain V5-7, clinical isolate susceptible to clindamycin and erythromycin); 0.5 µg/mL in assay [3] (Cutibacterium acnes, P. acnes strain V6-5, clinical isolate susceptible to clindamycin and erythromycin); 0.5 µg/mL in assay [3] (Cutibacterium acnes, P. acnes strain V6-6, clinical isolate susceptible to clindamycin and erythromycin). Also, the MIC is 0.5 µg/mL in assay [3] (Cutibacterium acnes, P. acnes strain V6-7, clinical isolate susceptible to clindamycin and erythromycin); 0.5 µg/mL in assay [3] (Cutibacterium acnes, P. acnes strain V7-3, clinical isolate susceptible to clindamycin and erythromycin); 0.5 µg/mL in assay [3] (Cutibacterium acnes, P. acnes strain V7-4, clinical isolate susceptible to clindamycin and erythromycin); 0.5 µg/mL in assay [3] (Cutibacterium acnes, P. acnes strain V7-14, clinical isolate susceptible to clindamycin and erythromycin); 0.5 µg/mL in assay [3] (Cutibacterium acnes, P. acnes strain V9-6E, clinical isolate susceptible to clindamycin and erythromycin); 0.5 µg/mL in assay [3] (Cutibacterium acnes, P. acnes strain V13-3E, clinical isolate susceptible to clindamycin and erythromycin). The minimal inhibitory concentration (MIC) in assay [3] (Cutibacterium acnes, P. acnes strain V14-2E, clinical isolate susceptible to clindamycin and erythromycin) is 0.5 µg/mL; in assay [3] (Cutibacterium acnes, P. acnes strain V17-3E, clinical isolate susceptible to clindamycin and erythromycin), 0.5 µg/mL; in assay [3] (P. acnes strain V2-9, clinical isolate susceptible to clindamycin and erythromycin) it was 0.25 µg/mL; in assay [3] (P. acnes strain V3-9, clinical isolate susceptible to clindamycin and erythromycin), 0.25 µg/mL; in assay [3] (P. acnes strain V3-10, clinical isolate susceptible to clindamycin and erythromycin), 0.25 µg/mL; in assay [3] (P. acnes strain V4-6, clinical isolate susceptible to clindamycin and erythromycin), 0.25 µg/mL. Besides, the MIC turned out to be 0.25 µg/mL in assay [3] (P. acnes strain V4-8, clinical isolate susceptible to clindamycin and erythromycin); 0.25 µg/mL in assay [3] (P. acnes strain V4-13, clinical isolate susceptible to clindamycin and erythromycin); 0.25 µg/mL in assay [3] (P. acnes strain V12-2E, clinical isolate susceptible to clindamycin and erythromycin); 0.25 µg/mL in assay [3] (P. acnes strain V15B-1E, clinical isolate susceptible to clindamycin and erythromycin); 0.25 µg/mL in assay [3] (P. acnes strain V18-4E, clinical isolate susceptible to clindamycin and erythromycin); 0.25 µg/mL in assay [3] (P. acnes strain V19-2E, clinical isolate susceptible to clindamycin and erythromycin). For the same molecule, the minimum inhibitory concentration (MIC) amounted to 0.25 µg/mL in assay [3] (P. acnes strain V20-5E, clinical isolate susceptible to clindamycin and erythromycin); 0.5 µg/mL (≈ 1.27 µM) in assay [4]. Besides, the MPC in assay [5] amounted to 2 µg/mL. Besides, the MPC/MIC in assay [5] is on record as 4.
Take `CC1CCc2c(N3CCC(O)CC3)c(F)cc3c(=O)c(C(=O)O)cn1c23` (centres unmarked) [Nadifloxacin]: the MIC in assay [4] is 0.13 µg/mL (≈ 0.361 µM). Moreover, in assay [5], the MPC turned out to be 1.2 µg/mL and the MPC/MIC is 9.2. In addition, the MPC/MIC in assay [5] (listed as nadifloxacin) was roughly 8.
On to `CC1Sc2c(C(=O)O)c(=O)c3cc(F)c(N4CCNCC4)cc3n21` (centres unmarked) [Ulifloxacin], for which the minimal inhibitory concentration (MIC) in assay [4] was 0.13 µg/mL (≈ 0.372 µM). In assay [5], the MPC was 1.2 µg/mL and the MPC/MIC was determined as 9.2.

The record behind these values is US10071103B2, “Treatments for resistant acne” (VYOME BIOSCIENCES PVT. LTD., priority 2014, dated 2018).
